PubChem BioAssay (NCI)
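Interpolation was linear, between the two tested concentrations surrounding the appropriate level; five concentrations were tested over 48 hours in 96-well plates. The concentration for 50% growth inhibition is given as GI50. TGI denotes the concentration required for complete inhibition of growth.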

Experiments:
Test in all cases: NCI tumour cell line growth inhibition, 48 h
[1] = test system: A549 NSCLC
[2] = test system: ACHN renal
[3] = test system: 786-0 renal
[4] = test system: A498 renal
[5] = test system: SF-268 CNS
[6] = test system: HCT-116 colon
[7] = test system: SNB-75 CNS
[8] = test system: HT29 colon
[9] = test system: CCRF-CEM leukemia
[10] = test system: MCF7 breast
[11] = test system: TK-10 renal
[12] = test system: T-47D breast
[13] = test system: OVCAR-4 ovarian
[14] = test system: HOP-92 NSCLC
[15] = test system: NCI-H460 lung
[16] = test system: UACC-257 melanoma
[17] = test system: OVCAR-3 ovarian
[18] = test system: NCI/ADR-RES ovarian
[19] = test system: OVCAR-5 ovarian
[20] = test system: RXF 393 renal
[21] = test system: HCC-2998 colon
[22] = test system: HS 578T breast
[23] = test system: M14 melanoma
[24] = test system: HOP-62 NSCLC
[25] = test system: UO-31 renal
[26] = test system: PC-3 prostate
[27] = test system: SF-539 CNS
[28] = test system: SW-620 colon
[29] = test system: IGROV1 ovarian
[30] = test system: NCI-H23 lung
[31] = test system: SR leukemia
[32] = test system: MDA-MB-231 breast
[33] = test system: SN12C renal
[34] = test system: OVCAR-8 ovarian
[35] = test system: U251 CNS
[36] = test system: SK-MEL-28 melanoma
[37] = test system: BT-549 breast
[38] = test system: SK-MEL-2 melanoma
[39] = test system: NCI-H522 lung
[40] = test system: RPMI-8226 leukemia
[41] = test system: MOLT-4 leukemia
[42] = test system: SK-OV-3 ovarian
[43] = test system: HCT-15 colon
[44] = test system: NCI-H226 lung
[45] = test system: K-562 leukemia
[46] = test system: HL-60(TB) leukemia
[47] = test system: SF-295 CNS
[48] = test system: UACC-62 melanoma
[49] = test system: LOX IMVI melanoma
[50] = test system: SNB-19 CNS
[51] = test system: KM12 colon
[52] = test system: MALME-3M melanoma
[53] = test system: CAKI-1 renal
[54] = test system: SK-MEL-5 melanoma
[55] = test system: COLO 205 colon
[56] = test system: EKVX NSCLC
[57] = test system: DU-145 prostate
[58] = test system: MDA-MB-435

Cc1ccc(/C=C(/C#N)n2nnc3cccc(F)c32)cc1 showed a GI50 [1] of 0.696 µM, a TGI [1] of 44.5 µM and a GI50 [2] of 0.579 µM. It also gave a TGI [2] of 4.46 µM, a GI50 [3] of 0.384 µM and a TGI [3] of 14.1 µM. For the same compound, the GI50 [4] was 0.226 µM, the TGI [4] was 0.877 µM and the GI50 [5] was 0.58 µM. The TGI [5] was 12.5 µM, the GI50 [6] was 0.379 µM and the TGI [6] was 6.54 µM. It also gave a GI50 [7] of 0.212 µM, a TGI [7] of 0.623 µM and a GI50 [8] of 0.359 µM. For the same compound, the TGI [8] was 11.9 µM, the GI50 [9] was 0.389 µM and the TGI [9] was greater than 100 µM. The GI50 [10] was 0.466 µM, the TGI [10] was 16.6 µM and the GI50 [11] was 1.22 µM. It also gave a TGI [11] of 13 µM, a GI50 [12] of 0.509 µM and a TGI [12] greater than 100 µM. The GI50 [13] was 1.01 µM, the TGI [13] was 33.1 µM and the GI50 [14] was 0.309 µM. The TGI [14] was 4.75 µM, the GI50 [15] was 0.35 µM and the TGI [15] was 2.13 µM. It also gave a GI50 [16] of 1.13 µM, a TGI [16] of 39.9 µM and a GI50 [17] of 0.227 µM. For the same compound, the TGI [17] was 0.536 µM, the GI50 [18] was 0.159 µM and the TGI [18] was 0.848 µM. The GI50 [19] was 0.673 µM, the TGI [19] was 9.12 µM and the GI50 [20] was 0.201 µM. For the same compound, the TGI [20] was 0.563 µM, the GI50 [21] was 1.11 µM and the TGI [21] was 5.15 µM. It also gave a GI50 [22] of 0.373 µM, a TGI [22] greater than 36.8 µM and a GI50 [23] of 0.287 µM. For the same compound, the TGI [23] was 22.1 µM, the GI50 [24] was 1.37 µM and the TGI [24] was greater than 100 µM. The GI50 [25] was 0.515 µM, the TGI [25] was 11.7 µM and the GI50 [26] was 0.412 µM. For the same compound, the TGI [26] was 14.6 µM, the GI50 [27] was 0.247 µM and the TGI [27] was 0.657 µM. It also gave a GI50 [28] of 0.354 µM, a TGI [28] of 5.53 µM and a GI50 [29] of 0.453 µM. It also gave a TGI [29] of 10.6 µM, a GI50 [30] of 0.461 µM and a TGI [30] of 12 µM. It also gave a GI50 [31] of 0.122 µM, a TGI [31] greater than 35.5 µM and a GI50 [32] of 0.807 µM. The TGI [32] was 9.66 µM, the GI50 [33] was 0.485 µM and the TGI [33] was 12.8 µM. The GI50 [34] was 0.594 µM, the TGI [34] was greater than 100 µM and the GI50 [35] was 0.489 µM. The TGI [35] was 14.4 µM, the GI50 [36] was 0.902 µM and the TGI [36] was 18.1 µM. It also gave a GI50 [37] of 0.634 µM, a TGI [37] of 8.99 µM and a GI50 [38] of 0.522 µM. It also gave a TGI [38] of 19 µM, a GI50 [39] of 0.194 µM and a TGI [39] of 14.9 µM. The GI50 [40] was 0.391 µM, the GI50 [41] was 0.394 µM and the TGI [41] was greater than 100 µM. It also gave a GI50 [42] of 0.931 µM, a TGI [42] of 55.1 µM and a GI50 [43] of 0.24 µM. For the same compound, the TGI [43] was 8.69 µM, the GI50 [44] was 1.76 µM and the TGI [44] was 8.31 µM. It also gave a GI50 [45] of 0.168 µM, a TGI [45] greater than 100 µM and a GI50 [46] of 0.295 µM. For the same compound, the TGI [46] was 4.42 µM, the GI50 [47] was 0.368 µM and the TGI [47] was 7.39 µM. The GI50 [48] was 0.32 µM, the TGI [48] was 11.1 µM and the GI50 [49] was 0.409 µM. It also gave a TGI [49] of 1.81 µM, a GI50 [50] of 0.466 µM and a TGI [50] of 17.4 µM. The GI50 [51] was 0.332 µM, the TGI [51] was 5.16 µM and the GI50 [52] was 0.488 µM. The TGI [52] was 17.6 µM, the GI50 [53] was 0.327 µM and the TGI [53] was 25.3 µM. It also gave a GI50 [54] of 0.423 µM, a TGI [54] of 4.22 µM and a GI50 [55] of 0.387 µM. For the same compound, the TGI [55] was 3.3 µM, the GI50 [56] was 0.863 µM and the TGI [56] was 18.7 µM. For the same compound, the GI50 [57] was 0.332 µM and the TGI [57] was 7.13 µM.
In the case of CN1CCN(CCCCCOc2cc(O)c3c(=O)cc(-c4ccccc4)oc3c2)CC1, the GI50 [1] is reported as 8.18 µM, the TGI [1] is reported as 26.3 µM and the GI50 [2] is reported as 1.91 µM. For the same compound, the TGI [2] was 3.87 µM, the GI50 [3] was 12.4 µM and the TGI [3] was 26.6 µM. For the same compound, the GI50 [4] was 24.3 µM, the TGI [4] was 42.8 µM and the GI50 [5] was 11.7 µM. It also gave a TGI [5] greater than 100 µM, a GI50 [6] of 1.74 µM and a TGI [6] of 4.08 µM. It also gave a GI50 [7] of 30.5 µM, a TGI [7] of 54.9 µM and a GI50 [8] of 2.86 µM. For the same compound, the TGI [8] was 8.12 µM, the GI50 [10] was 3.45 µM and the TGI [10] was 11.3 µM. For the same compound, the GI50 [11] was 12 µM, the TGI [11] was 39.4 µM and the GI50 [13] was 19.1 µM. It also gave a TGI [13] of 77.7 µM, a GI50 [15] of 3.27 µM and a TGI [15] of 11.3 µM. For the same compound, the GI50 [16] was 2.03 µM, the TGI [16] was 3.78 µM and the GI50 [17] was 3.45 µM. It also gave a TGI [17] of 8.1 µM, a GI50 [18] of 14.9 µM and a TGI [18] of 54.4 µM. It also gave a GI50 [19] of 4 µM, a TGI [19] of 22.2 µM and a GI50 [20] of 1.96 µM. It also gave a TGI [20] of 5.97 µM, a GI50 [21] of 0.239 µM and a TGI [21] of 4.9 µM. The GI50 [58] was 2.32 µM, the TGI [58] was 5.33 µM and the GI50 [22] was 18.1 µM. For the same compound, the TGI [22] was 51.9 µM, the GI50 [23] was 1.71 µM and the TGI [23] was 3.09 µM. It also gave a GI50 [24] of 2.96 µM, a TGI [24] of 8.54 µM and a GI50 [25] of 1.71 µM. For the same compound, the TGI [25] was 3.55 µM, the GI50 [27] was 2.81 µM and the TGI [27] was 7.87 µM. For the same compound, the GI50 [28] was 2.61 µM, the TGI [28] was 7.53 µM and the GI50 [29] was 2.41 µM. For the same compound, the TGI [29] was 5.64 µM, the GI50 [32] was 1.12 µM and the TGI [32] was 4.53 µM. For the same compound, the GI50 [33] was 11.8 µM, the TGI [33] was 27.6 µM and the GI50 [34] was 15.7 µM. It also gave a TGI [34] of 91.7 µM, a GI50 [35] of 1.98 µM and a TGI [35] of 4.86 µM. For the same compound, the GI50 [36] was 2.22 µM, the TGI [36] was 4.25 µM and the GI50 [37] was 13.4 µM. It also gave a TGI [37] of 29.7 µM, a GI50 [38] of 3.04 µM and a TGI [38] of 8.76 µM. It also gave a GI50 [39] of 2.59 µM, a TGI [39] of 6.71 µM and a GI50 [41] of 3.27 µM. The TGI [41] was 12.4 µM, the GI50 [42] was 3.62 µM and the TGI [42] was 16.9 µM. It also gave a GI50 [43] of 1.79 µM, a TGI [43] of 4.02 µM and a GI50 [44] of 22 µM. For the same compound, the TGI [44] was 46.4 µM, the GI50 [45] was 1.8 µM and the TGI [45] was 3.68 µM. The GI50 [46] was 3.04 µM, the TGI [46] was 8.63 µM and the GI50 [47] was 2.05 µM. The TGI [47] was 4.16 µM, the GI50 [48] was 1.86 µM and the TGI [48] was 3.26 µM. The GI50 [49] was 1.6 µM, the TGI [49] was 2.95 µM and the GI50 [50] was 4.11 µM. The TGI [50] was 22.3 µM, the GI50 [51] was 2.84 µM and the TGI [51] was 9.66 µM. It also gave a GI50 [52] of 0.898 µM, a TGI [52] of 4.31 µM and a GI50 [54] of 3.13 µM. For the same compound, the TGI [54] was 10.3 µM, the GI50 [55] was 1.63 µM and the TGI [55] was 3.06 µM. The GI50 [56] was 10.2 µM, the TGI [56] was greater than 100 µM and the GI50 [57] was 10.5 µM. The TGI [57] was greater than 100 µM.
